Here are results for three compounds from patent publication US20140050778A1, “NUCLEIC ACID BINDING COMPOUNDS, METHODS OF MAKING, AND USE THEREOF” (UNIVERSITY OF ROCHESTER, priority 2010, published 2014).

Entries after “also recorded” stand apart in the source; their conditions may differ.

In data set [1] the test system is human fibroblasts / mouse myoblasts. Kind of data set: MTT toxicity assay, comparison drugs (FIGS. 13A-B). It counts as cell-based. As for the experimental part: (§1) For toxicity studies, mouse myoblasts or human fibroblasts were plated in a 96-well tissue culture plate in DMEM (10% fetal bovine serum, 100 units/ml penicillin, […]) and allowed to grow to approximately 80% confluence at 37° C. under CO2. Varying compound concentrations (up to 1 mM) were incubated with cells (48 hours, 37° C.). Media was then removed, and 3-(4,5-dimethylthiazol-2-yl)-2,5-diphenyltetrazolium bromide (“MTT”) in media was added to each well and incubated at 37° C. for 4 h. After removal of the MTT media, isopropanol (100 pp was added, and absorbance was measured at 600 nm on a Modulus microplate reader (Turner Biosystems).
Background: Tetrazolium assays rely on reduction of a dye to a coloured formazan, in cell work by metabolically active cells.

Data set [2] concerns the target (CUG)10 RNA (SEQ ID NO: 3). The data set is described as follows: SPR binding to immobilized biotinylated RNA. Conditions: SPR, (CUG)10. As for the experimental part:
SPR binding measurements were performed on a Biacore-X instrument (Biacore, Inc., Uppsala, Sweden) with two flow channels (FC1 and FC2). 5′-Biotinylated-RNA sequences, with a C6 linker separating the biotin label from the RNA (Integrated DNA Technologies Inc.) were immobilized on streptavidin (Rockland Immunochemicals) functionalized carboxylmethyl dextran coated sensor chips (CM5, G.E. Healthcare) using EDC/NHS (Advanced ChemTech) coupling chemistry. Filtered (0.2μ), degassed and autoclaved HBS-N buffer (0.01M Hepes, pH=7.4, 0.15 M NaCl) was employed as sample and as running buffer for all SPR experiments. A typical protocol for an experiment is as follows: A CM5 sensor chip was allowed to equilibrate to room temperature and then docked into the instrument. Following priming with running buffer, FC1 and FC2 were conditioned by manual injection of 20 μL aqueous NaOH (50 mM) at a flow rate of 30 μL/min. This was repeated 3 times followed by a wash command. Next, the carboxyl groups on the sensor chip surface in both flow cells were activated separately by injecting 60 μL of freshly prepared 1:1 mixture of EDC (0.4 M) and NHS (0.1 M) at a 5 μL/min flow rate followed by a wash. […] After washing, the surface was deactivated with 60 μL injection of ethanolamine (1M, pH=8.5) at 5 μL/min. The flow cells were primed, and the streptavidin surface in FC1 alone was blocked with 30 μL of biotin (20 μM in HBS-N) at 5 μL/min. The RNA (200 nM in running buffer, HBS-N) to be immobilized was unfolded by heating above its predicted melting temperature in a heated block for 2 min and then allowed to refold by cooling gradually to room temperature. The RNA was then immobilized in FC2 alone to response units ranging from 200-1000 RU using a 5 μL/min flow rate. Representative sensorgrams for the immobilization procedure is shown in FIGS. 2A-B. Two 20 μL aliquots of NaCl (0.5 M) were injected at a 30 μL/min flow rate to remove non-specifically bound RNA. The level of RNA immobilized was noted when the baseline was stable, usually after repeated buffer injection followed by a “prime” command. Binding measurements were performed by flowing various concentrations of the compounds to be analyzed over the immobilized RNA and recording the reference-subtracted (FC2−FC1) sensorgrams. For kinetic analysis, at least five sensorgrams corresponding to different concentrations of compound (usually ranging from 0.05-1 μM in HBS-N) were obtained using flow rates of either 60 μL/min or 30 μL/min. The experimental sensorgrams were globally fitted to a 1:1 binding equation (Biaevaluation software) to obtain association rates (ka) and dissociation rates ([…]) as well as equilibrium binding constants (KD). To measure the binding stoichiometry (n), the relations in equations (1-3) below were used: […]
where RUmax is the maximum resonance response unit at saturation, RURNA is the amount RU of RNA immobilized, n is the stoichiometry, MWcompound and MWRNA are molecular weights of compound and RNA respectively, and RUeq represents the resonance response at steady-state (equilibrium). The response units at equilibrium were subjected to Scatchard binding plots of (r/Cfree vs. r).
This technique allows the association and dissociation rates (ka and kd), equilibrium binding constants (KD), and the binding stoichiometry (n) to be measured in a label-free format (Liu and Wilson, “Quantitative Analysis of Small Molecule-nucleic Acid Interactions with a Biosensor Surface and Surface Plasmon Resonance Detection,” Methods Mol. Biol. 613:1-23 (2010), which is hereby incorporated by reference in its entirety).
A general note: Surface plasmon resonance follows binding to a sensor surface in real time, without labels.

A further data set has as its target (CUG)10 RNA. Kind of data set: Fluorescence titration (benzo[g]quinoline quenching). It counts as binding. The settings on record: (CUG)10, 1 μM compound in HBS-N. As for the experimental part: The benzo[g]quinoline moiety is fluorescent, with excitation and emission maxima at 362 nm and 439 nm respectively in methanol. Fluorescence titration binding measurements were performed on a Cary Eclipse fluorescence spectrophotometer using a 10 mm path-length semimicro quartz fluorescence cell with 400 μL sample holding capacity. Absorbance measurements were carried out on a UV-Visible spectrophotometer (Shimadzu, UV-1601PC) using a 1 mL (1 cm path-length) quartz cell. Spectroscopic grade anhydrous methanol used in the measurement of relative quantum yield of the 2-ethyl benzo[g]quinoline carboxylic acid was purchased from Alfa Aesar and was used without further purification. For these measurements, known procedures were used (Lee and Grissom, “Design, Synthesis, and Characterization of Fluorescent Cobalamin Analogues with High Quantum Efficiencies,” Org. Lett. 11:2499-2502 (2009); Joseph R. Lakowicz, Principles of Fluorescence Spectroscopy, 2nd edition (Kluwer Academic/Plenum Publishers, 1999), which are hereby incorporated by reference in their entirety). Briefly, RNA (10 μM stock) in HBS-N buffer was titrated into a solution of 1 μM compound in HBS-N. After each addition of RNA, ten minutes were allowed for equilibration before recording the change in fluorescence at 468.5 nm. Fluorescence units (“FU”) were then corrected for dilution and the FU after each addition was subtracted from the FU at zero RNA concentration to give AFU. Following saturation, AFU was plotted against RNA concentration using Origin 7 (OriginLab, Inc.), and fitted to a 1:1 Langmuir binding model to obtain apparent dissociation constants (Kn). […]
Selected equilibrium affinities for (CUG)10 were confirmed by fluorescence titration. The quantum yield of the ethylbenzo[g]quinoline carboxylic acid (compound 2), relative to quinine sulfate, was determined to be 0.64 (FIGS. 5A-F). […] Apparent KD values measured in this manner are consistent with those obtained by SPR (Table 6); that they are not identical to SPR-measured values likely results from the differing formats of the two methods. […]

Another data set concerns mouse C2C12 myoblasts. The data set is described as follows: Cell permeability by fluorescence microscopy. The settings on record: 12 h, 125 μM, intrinsic fluorescence. It counts as cell-based. As for the experimental part:
For cell permeability studies, human fibroblasts or mouse myoblasts grown to 80% confluence were exposed to compounds for 12 hours in a 96 well tissue culture plate. After removal of the culture media (DMEM, with 10% FBS, 1% pen-strep (GIBCO)) the cells were washed twice with PBS to remove excess compounds. Cells were then imaged while in buffer under a fluorescence microscope (Olympus IX70) in the 96-well plate using a 460 nm emission filter.

Another data set relates to pseudotyped HIV. Kind of data set: Pseudotyped HIV assay (HEK293T producer cells, p24 ELISA, HeLa LTR-luciferase). It counts as cell-based, HIV-1. The settings on record: 500 nM, single dose experiments. As for the experimental part: Initial experiments were conducted to ascertain if compound 14 (designated as compound 5-5 Z in PCT Publ. […]. After transfection, cells were incubated with compound for 20 hours. Viruses produced in untreated and treated cells were recovered from the media and viral titers were assessed using a p24 ELISA assay as described previously by Miller et al., “The Dimerization Domain of HIV-1 Viral Infectivity Factor Vif is Required to Block Virion Incorporation of APOBEC3G,” Retrovirology 4:81 (2007), which is hereby incorporated by reference in its entirety. The same number of virus from control and compound-treated cells were used to infect a HeLa cell line expressing luciferase under the control of an LTR promoter (Platt et al., “Effects of CCRS and CD4 Cell Surface Concentrations on Infections by Macrophagetropic Isolates of Human Immunodeficiency Virus Type 1,” J. Virol. 72:2855-2864 (1998), which is hereby incorporated by reference in its entirety). Viral infectivity was quantified in microtiter well format based on the luciferase signals. […]
This experiment was repeated using a dose-response study to assess the efficacy of compound 18. […] Actin concentration (as measured by Western blot) was used to correct viral titers for any subtle variation in cell number, and to confirm that the observed effect is specific to virus production and not to off-target effects. […]
A general note: In an ELISA, binding on a coated surface is turned into a signal by an enzyme label.

The subject of another data set is human fibroblasts. Kind of data set: MTT toxicity assay. The format is cell-based. Conditions: single substance, concentrations up to 500 μM. As for the experimental part:
as §1
SPR and fluorescence titration experiments, performed using the protocol described in Examples 3 and 4 above, except using as the target a highly conserved RNA sequence responsible for regulating the production of the Gag-Pol polyprotein via a −1 ribosomal frameshift, which occurs along a “slippery sequence” in gag-pol mRNA (SEQ ID NO: 7). This “frameshift stimulatory sequence” (or “HIV-1 FSS”) consists of an upper stemloop and a lower stem, separated by a purine bulge in the most common types of HIV (FIG. 19). For the fluorescent titration experiments, the upper stemloop of SEQ ID NO: 7 was employed. Cell uptake and toxicity studies were carried out using human fibroblasts according to Example 5 above.

As to `COc1cccc2c1C(=O)c1c(O)c3c(c(O)c1C2=O)C[C@@](O)(C(C)=O)C[C@@H]3O[C@H]1C[C@H](N)[C@H](O)[C@H](C)O1` [daunorubicin], in data set [1], the “toxicity (MTT)” value is listed as “significant toxicity at all concentrations tested”.

With `C=CC[C@H](NC(=O)[C@@H]1CCCN1C(=O)c1cc2cc3ccccc3cc2nc1CC)C(=O)N[C@@H](CCCCN)C(=O)NCCCN` [Compound 3], the “apparent KD” value in data set [2] was “no measurable affinity; also recorded: complete lack of binding”; at (CUG)10 RNA, “No binding”.

`CCc1nc2cc3ccccc3cc2cc1C(=O)O` [Compound 2, 2-ethylbenzo[g]quinoline-3-carboxylic acid]: the “cell membrane penetration / localization” value with mouse C2C12 myoblasts is listed as “only a modest ability to enter cells; also recorded: not internalized by cells”. In addition, in data set [2], the “apparent KD” value is reported as “complete lack of binding”. The “decrease in viral titer relative to null control” value in the data set with pseudotyped HIV is recorded as “no effect”. Further, in the data set on human fibroblasts, the “toxicity (MTT)” value is recorded as “no toxicity”.
